Our source for the TGI values is PubChem BioAssay (NCI).

The subject of test [1] is DMS 273 small cell lung. The test is described as follows: inhibition of tumour cell growth, NCI panel, 48 h.
The subject of test [2] is MDA-N. The test is described as follows: inhibition of tumour cell growth, NCI panel, 48 h.

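Compound exposure: 48 hours, 5 concentrations, 96-well plates. At the TGI there is no net growth.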 Bounds are passed on as bounds.

Compound `O=C1CCC(c2ccccc2)=NN1c1nsc2ccccc12` had a TGI in test [1] above 100 µM.
In test [2], `O=c1oc2cc(O)ccc2c(O)c1C(c1ccccc1)c1c(O)c2ccc(O)cc2oc1=O` returned a TGI above 100 µM.
